From patent publication US8901156B2, “Compounds and methods” (Tempero Pharmaceuticals, Inc., priority 2010, dated 2014)

Each compound was assayed against T1, Recombinant HDAC9 isoform 4 (Homo sapiens, UniProt Q9UKV0) (assay: Histone Deacetylase 9 (HDAC9) inhibition assay, fluorogenic substrate). Conditions: mean of a minimum of 2 experiments; 11 point 3x dilution series from 100 uM; substrate 4.5 uM; read-out: mean pIC50, inhibition of HDAC9 (converted).
T1 construct: purchased BPS Bioscience
Format: biochemical

T1 sequence (Q9UKV0 1-1066 isoform Q9UKV0-5): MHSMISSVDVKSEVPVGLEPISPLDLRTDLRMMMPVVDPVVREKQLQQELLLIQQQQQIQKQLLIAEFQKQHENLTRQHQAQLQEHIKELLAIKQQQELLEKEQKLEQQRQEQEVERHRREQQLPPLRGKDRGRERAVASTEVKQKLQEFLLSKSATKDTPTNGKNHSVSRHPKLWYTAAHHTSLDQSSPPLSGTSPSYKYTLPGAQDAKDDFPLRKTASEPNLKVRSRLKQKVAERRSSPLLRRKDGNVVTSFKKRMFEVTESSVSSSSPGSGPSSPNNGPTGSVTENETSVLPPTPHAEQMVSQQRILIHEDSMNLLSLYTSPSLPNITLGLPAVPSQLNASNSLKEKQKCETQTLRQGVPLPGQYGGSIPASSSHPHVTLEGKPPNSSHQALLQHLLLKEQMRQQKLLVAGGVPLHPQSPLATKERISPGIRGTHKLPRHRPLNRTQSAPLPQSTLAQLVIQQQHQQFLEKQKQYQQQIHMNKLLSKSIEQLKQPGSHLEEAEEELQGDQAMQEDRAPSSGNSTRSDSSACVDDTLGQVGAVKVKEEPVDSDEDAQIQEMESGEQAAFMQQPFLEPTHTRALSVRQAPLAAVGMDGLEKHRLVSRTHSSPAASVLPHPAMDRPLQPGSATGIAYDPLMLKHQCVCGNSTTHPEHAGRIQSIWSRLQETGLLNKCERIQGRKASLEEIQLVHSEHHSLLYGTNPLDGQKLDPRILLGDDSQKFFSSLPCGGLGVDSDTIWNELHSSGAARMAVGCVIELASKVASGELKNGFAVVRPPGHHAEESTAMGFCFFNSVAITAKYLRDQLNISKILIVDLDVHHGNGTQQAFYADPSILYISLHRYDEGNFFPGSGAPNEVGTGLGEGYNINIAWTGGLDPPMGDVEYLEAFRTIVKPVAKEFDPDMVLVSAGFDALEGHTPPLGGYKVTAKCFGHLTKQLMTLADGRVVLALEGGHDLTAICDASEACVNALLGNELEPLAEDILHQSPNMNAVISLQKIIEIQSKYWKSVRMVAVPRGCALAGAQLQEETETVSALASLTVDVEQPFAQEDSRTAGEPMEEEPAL

Row | SMILES | IC50
1 | O=C(NCC1(c2nc(-c3ccncc3)cs2)CCOCC1)c1cccc(-c2noc(C(F)(F)F)n2)c1 [Example 21, N-((4-(4-(Pyridin-4-yl)thiazol-2-yl)tetrahydro-2H-pyran-4-yl)methyl)-3-(5-(trifluoromethyl)-1,2,4-oxadiazol-3-yl)benzamide] | < 1 µM
2 | O=S(=O)(NCC1(c2nc(-c3ccccc3)cs2)CCOCC1)c1cccc(-c2noc(C(F)(F)F)n2)c1 [Example 32, N-((4-(4-Phenylthiazol-2-yl)tetrahydro-2H-pyran-4-yl)methyl)-3-(5-(trifluoromethyl)-1,2,4-oxadiazol-3-yl)benzenesulfonamide] | < 1 µM
3 | O=C(NCC1(c2cccc(-c3ccccc3)c2)CCOCC1)c1cncc(-c2noc(C(F)(F)F)n2)c1 [Example 78, N-((4-([1,1′-Biphenyl]-3-yl)tetrahydro-2H-pyran-4-yl)methyl)-5-(5-(trifluoromethyl)-1,2,4-oxadiazol-3-yl)nicotinamide] | < 1 µM

Next, values leading:

Row | IC50 | SMILES
4 | < 1 µM | O=C(NCCC(O)c1coc(-c2ccc(F)cc2)n1)c1cccc(-c2noc(C(F)(F)F)n2)c1 (centres unmarked) [Example 110, N-(3-(2-(4-Fluorophenyl)oxazol-4-yl)-3-hydroxypropyl)-3-(5-(trifluoromethyl)-1,2,4-oxadiazol-3-yl)benzamide]
5 | < 1 µM | O=C(NCCc1nc(-c2ccccc2)no1)c1cccc(-c2noc(C(F)(F)F)n2)c1 [Example 132, N-(2-(3-Phenyl-1,2,4-oxadiazol-5-yl)ethyl)-3-(5-(trifluoromethyl)-1,2,4-oxadiazol-3-yl)benzamide]
